Experiment [1] concerns corticosterone. As to the kind of experiment: Serum corticosterone measurement (Corticosterone EIA Kit). Format: in vivo, mice. The settings on record: for serum corticosterone levels: GF mice, 50 mg/kg i.p., vs CMC vehicle, 50 mg/kg; for serum corticosterone: CNO i.p.
Description: Whole blood was collected either by cardiac puncture or retro-orbital bleeding, and placed into Micro tube Z gel (41.1378.005; Sarstedt). Serum was separated by centrifuge at 10,000×g for five minutes, and stored at −80° C. until use. Corticosterone levels were detected by the Corticosterone EIA Kit (K014-H5; Arbor Assays) using the manufacturer's protocol. Due to the nature of the circadian rhythm for the corticosterone, the blood sample was collected during 1:00-5:00 pm on each day of experiment.
For experiment [2], the system named is mice. The experiment can be described thus: Reciprocal social interaction (RSI) test, social activity. The format is in vivo. The settings on record: for social activity of ABX adrenalectomized mice: under drug treatment, compared to ABX sham and vehicle sham mice.
For experiment [3], the system named is mice. The experiment can be described thus: Non-social activity (self-grooming, digging, rearing) in the RSI paradigm. Format: in vivo. The source says: Minimal aggressive behaviors were observed. Each novel mouse was used for testing up to two times per day. Subject mice undergoing repeated testing throughout the experiment were confronted with a novel mouse each time. The following social investigation behaviors constituted “social activity” and were scored as such: anogenital sniffing, nose-nose sniffing, active approach, and push under/crawl. The following solitary behaviors during social interaction constituted “non-social activity” and were scored as such: self-grooming, digging, and rearing. All behaviors were analyzed using of ETHOM software (Shih, 2000).
Novel cage behavior is a widely-used test for measuring the non-social activity in a novel environment. The subject mouse was placed in an unused, sterilized cage. Non-social activity was video recorded for 5 minutes. The following solitary behaviors during social interaction constituted “non-social activity” and were scored as such: self-grooming, digging, and rearing. All behaviors were analyzed using of ETHOM software (Shih, 2000).

The subject of experiment [4] is c-Fos. The experiment can be described thus: c-Fos staining of brain sections after social interaction. The format is in vivo. The settings on record: ABX hM4Di mice, CNO.
Description: All brain samples for c-Fos expression were collected one hour after the reciprocal social interaction test. Mice were anesthetized by intraperitoneal injection with a mixture of 100 mg/kg ketamine and 10 mg/kg xylazine. The mice were then perfused via the cardiovascular system with PBS followed by 4% paraformaldehyde (Electron Microscopy Sciences). Brains were removed and post-fixed in 4% paraformaldehyde 3-5 days at 4° C. The brains were kept in PBS with 0.02% sodium azide at 4° C. until sectioning.
The brains were embedded in 4% UltraPure low melting point agarose (ThermoFisher) and were coronally sectioned by vibratome (VT1000S; Leica) at a thickness of 50 μm, with the exception of the brain sections for FIGS. 1D-1F that were sectioned at a thickness of 100 μm. Brain sections of 50 μm were collected and stained every 0.15 mm. Brain sections of 100 μm were collected sequentially and stained entirely. The brain sections were stored as free-floating in PBS with 0.02% sodium azide at 4° C. until staining. […] The next day, sections were incubated with fluorescence-conjugated secondary antibody for 1.5-2 hours at room temperature. […] The fluorescence-conjugated secondary antibodies were donkey anti-goat (1:1000), donkey anti-rabbit (1:1000), and donkey anti-mouse (1:1000) (ThermoFisher Scientific). […]

The text below walks through data of patent US20220273732A1, “PROBIOTIC THERAPIES FOR SOCIAL DEFICIT AND STRESS RESPONSE” (California Institute of Technology, priority 2021, published 2022).

Entries after “also recorded” stand apart in the source; their conditions may differ. No end group written: not given here.

Turning to `CC(C)(C(=O)c1cccnc1)c1cccnc1` [metyrapone], the serum corticosterone levels entry in experiment [1] (after social interaction) is “effectively reduced”; in experiment [1] (after social interaction, listed as MET) it was “reduction”. Besides, the social activity entry in experiment [2] (GF mice, 50 mg/kg i.p., 40 min before test, vs CMC vehicle) was “significantly increased”. Moreover, the “social activity of ABX sham mice compared to vehicle sham mice” value in experiment [2] (during drug treatment i.p. (RU-486 40 mg/kg, MET 50 mg/kg)) is recorded as “increased”. For the same molecule, the “social activity of ABX adrenalectomized mice” value in experiment [2] is “elevated”.

For “CRF: synthetic corticotropin-releasing factor (SEEPPISLDLTFHLLREVLEMARAEQLAQQAHSNRKLMEII; ends and bridges not checked; UniProt P06850 154-194, looked up)”, the non-social activity entry in experiment [3] (high levels of CRF into PVN of SPF mice) is “reversed these changes”; in experiment [3] (low levels of CRF into PVN of SPF mice) it was “increased”. Also, the “social activity toward a novel mouse” value in experiment [2] (injection into the PVN of SPF mice (210 μM or 42 μM, 450 nL per hemisphere)) is “dramatically reduced”.

On to `C[C@]12C[C@H](O)[C@H]3[C@@H](CCC4=CC(=O)CC[C@@]43C)[C@@H]1CC[C@@H]2C(=O)CO` [corticosterone], for which the social behavior entry in experiment [2] (acute injection, 10 mg/kg i.p. on two consecutive days, all groups (vehicle sham, ABX sham, ABX ADX)) was “impaired”. For the same molecule, the social activity result in experiment [2] (injection into the DG and BNST of SPF mice (corticosterone 65 μM, dexamethasone 20 mM)) was “decreased”.

Turning to `CC#C[C@]1(O)CC[C@H]2[C@@H]3CCC4=CC(=O)CCC4=C3[C@@H](c3ccc(N(C)C)cc3)C[C@@]21C` [RU-486, mifepristone], the social activity entry in experiment [2] (ABX control mice vs ABX Nr3cl^ΔDG or Nr3cl^ΔBNST mice, 40 mg/kg i.p.) is “enhanced social activity only in ABX control mice”. Further, the “social activity of ABX adrenalectomized mice” value in experiment [2] is “elevated”.

For `C[N+]1([O-])CCN(C2=Nc3cc(Cl)ccc3Nc3ccccc32)CC1` [CNO, clozapine N-oxide], the non-social activity result in experiment [3] (SPF hM3Dq mice, chemogenetic activation of PVN CRH neurons) is given as “increased”. In addition, the serum corticosterone entry in experiment [1] (ABX hM4Di mice (PVN), after social interaction) is “decreased; also recorded: reduction”; in experiment [1] (SPF hM3Dq mice (PVN)), “increased”. For the same molecule, the social behavior entry in experiment [2] (ABX Crh-ires-Cre mice with hM4Di in PVN, CNO i.p. 2-3 mg/kg) was “dramatically increased”; in experiment [2] (ABX mice receiving control virus (mCherry) in PVN, CNO i.p.), “no change”; in experiment [2] (SPF hM3Dq mice (PVN), CNO i.p.) it was “significantly decreased”. For the same molecule, in experiment [4], the “c-Fos expression in the BNST or DG” value was “did not alter”. The “c-Fos staining in the PVN” value in experiment [4] is “decreased”.
